Assay results as given in patent US9765018B2, “IDO inhibitors” (BRISTOL-MYERS SQUIBB COMPANY, priority 2013, dated 2017).
Values belong to the compound of their own block, whether it stands above or below them.

Molecular target: IDO (Homo sapiens (Human), UniProt P14902)
Assay: Kynurenine assay in IFN-γ-stimulated Hela cells
Assay type: cell-based
Settings: 20 h, read-out: Hela Kyurenine (IC50)
Experimental: Reagents: Hela cells (ATCC, CCL-2)
IFNg (R&D, 28-IF-100)—resuspend at 10 ug/mL in PBS with 0.1% BSA 30% TCA
Ehrlich reagent (2% w/v p-dimethylaminobenzaldehyde in glacial acetic acid)
Cell Lines and Culture Conditions
Hela cancer cell lines were acquired from the American Type Culture Collection. Cells were maintained in phenol red free-RPMI1640 medium containing high glucose and L-glutamine (Invitrogen) supplemented with 10% fetal bovine serum (FBS; Invitrogen). Cell cultures were incubated at 37° C., 5% CO2, and 100% humidity.
Cell Treatment and Kynurenine Assay
Hela cells were seeded on 96-well plates (40,000 cells per well) and allowed to adhere for 5-6 hours. Cells were then treated with vehicle (DMSO) or with IDO inhibitor at a top dose of 30 μM (3-fold dilution all the way down to 1.5 nM). A final concentration of 100 ng/mL of human recombinant IFN-γ (R&D, 28-IF-100) was immediately added to the cells to stimulate IDO expression. Treated cells were then incubated for 20 hours at 37° C. At the end of the 20 h incubation, reactions were terminated by the addition of 30% TCA to each well. Plates were incubated for 30 minutes at 50° C. to hydrolyze N-formylkynurenine to kynurenine. Cells were centrifuged 10 minutes at 2400 rpm. 100 ul of supernatants were transferred to new 96 flat well plates and mixed with 100 ul Ehrlich reagent. The resulting solution was incubated 10 minutes at RT. Absorbance at 490 nm was read using Spectra Max 384 (Molecular Devices).

IDO, sequence (P14902 whole entry): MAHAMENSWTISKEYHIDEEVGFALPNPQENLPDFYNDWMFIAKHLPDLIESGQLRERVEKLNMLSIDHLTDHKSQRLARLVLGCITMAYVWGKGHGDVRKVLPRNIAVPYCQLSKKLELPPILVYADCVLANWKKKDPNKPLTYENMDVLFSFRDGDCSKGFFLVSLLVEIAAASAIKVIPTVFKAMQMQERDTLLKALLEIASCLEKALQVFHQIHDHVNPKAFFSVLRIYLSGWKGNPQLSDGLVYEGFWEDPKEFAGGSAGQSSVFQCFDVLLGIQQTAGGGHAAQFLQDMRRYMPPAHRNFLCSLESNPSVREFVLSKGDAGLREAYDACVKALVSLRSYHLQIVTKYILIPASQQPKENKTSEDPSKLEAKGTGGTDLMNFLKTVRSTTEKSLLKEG

- IC50: 1090 nM
SMILES: Cc1ccccc1NC(=O)Nc1cc(-c2ccc(C(=O)O)c(Cl)c2)ccc1Oc1ccccc1C(C)(C)C [Example 216, 4′-(2-tert-butylphenoxy)-3-chloro-3′-(3-o-tolylureido) biphenyl-4-carboxylic acid]

- IC50: 1010 nM
SMILES: CC(C)(C)c1ccccc1Oc1ccc(-c2cccc(C(=O)O)c2)cc1NC(=O)NC1CCCCC1 [Example 221, 4′-(2-tert-butylphenoxy)-3′-(3-cyclohexylureido) biphenyl-3-carboxylic acid]

- IC50: 1430 nM
SMILES: Cc1ccc(NC(=O)Nc2cc(-c3cccc(C(=O)O)c3)ccc2Oc2ccccc2)cc1 [Example 235, 4′-phenoxy-3′-(3-p-tolylureido) biphenyl-3-carboxylic acid]

- IC50: 1150 nM
SMILES: O=C(Nc1ccccc1Cl)Nc1cc(-c2cccc(C(=O)O)c2)ccc1Oc1ccc(Cl)cc1 [Example 242, 4′-(4-chlorophenoxy)-3′-(3-(2-chlorophenyl)ureido)biphenyl-3-carboxylic acid]

- IC50: 1820 nM
SMILES: O=C(Nc1ccc(OC(F)(F)F)cc1)Nc1cc(-c2cccc(C(=O)O)c2)ccc1Oc1ccc(Cl)cc1 [Example 243, 4′-(4-chlorophenoxy)-3′-(3-(4-(trifluoromethoxy)phenyl)ureido) biphenyl-3-carboxylic acid]

- IC50: 1340 nM
SMILES: Cc1ccc(NC(=O)Nc2cc(-c3cccc(C(=O)O)c3)ccc2Oc2c(Cl)cccc2Cl)cc1 [Example 247, 4′-(2,6-dichlorophenoxy)-3′-(3-p-tolylureido) biphenyl-3-carboxylic acid]

- IC50: 740 nM
SMILES: Cc1cccc(NC(=O)Nc2cc(-c3cc(F)cc(C(=O)O)c3)ccc2Oc2ccccc2C(C)(C)C)c1 [Example 251, 4′-(2-tert-butylphenoxy)-5-fluoro-3′-(3-m-tolylureido) biphenyl-3-carboxylic acid]

- IC50: 370 nM
SMILES: COc1ccc(-c2ccc(Oc3ccccc3C(C)(C)C)c(NC(=O)Nc3ccc(C)cc3)c2)cc1C(=O)O [Example 255, 4′-(2-tert-butylphenoxy)-4-methoxy-3′-(3-p-tolylureido) biphenyl-3-carboxylic acid]

- IC50: 420 nM
SMILES: CC(C)(C)c1ccccc1Oc1ccc(-c2cc(C(=O)O)ccc2F)cc1NC(=O)Nc1ccc(OC(F)(F)F)cc1 [Example 261, 4′-(2-tert-butylphenoxy)-6-fluoro-3′-(3-(4-(trifluoromethoxy)phenyl)ureido) biphenyl-3-carboxylic acid]

- IC50: 3460 nM
SMILES: CC(C)(C)c1ccccc1Oc1ccc(-c2ccc(C(=O)O)cc2)cc1NC(=O)Nc1ccc(OC(F)(F)F)cc1 [Example 265, 4′-(2-tert-butylphenoxy)-3′-(3-(4-(trifluoromethoxy)phenyl)ureido)biphenyl-4-carboxylic acid]

- IC50: 340 nM
SMILES: COc1ccc(-c2cnc(Oc3ccccc3C(C)(C)C)c(NC(=O)Nc3ccc(C)cc3)c2)cc1C(=O)O [Example 335]

- IC50: 87900 nM
SMILES: Cc1ccc(NC(=O)Nc2cc(-c3ccc(C(=O)O)cc3)cnc2Oc2ccccc2)cc1 [Example 338]

More lines, now with the values behind:

SMILES: COc1cc(-c2ccc(Oc3ccccc3C(C)(C)C)c(NC(=O)Nc3cccc(C)c3)c2)ccc1C(=O)O [Example 212, 4′-(2-tert-butylphenoxy)-3-methoxy-3′-(3-m-tolylureido) biphenyl-4-carboxylic acid]
- IC50: 1070 nM

SMILES: CC(C)(C)c1ccccc1Oc1ccc(-c2ccc(C(=O)O)c(Cl)c2)cc1NC(=O)Nc1ccccc1C(F)(F)F [Example 214, 4′-(2-tert-butylphenoxy)-3-chloro-3′-(3-(2-(trifluoromethyl)phenyl)ureido) biphenyl-4-carboxylic acid]
- IC50: 150 nM

SMILES: CC(C)(C)c1ccccc1Oc1ccc(-c2ccc(C(=O)O)c(F)c2)cc1NC(=O)Nc1ccccc1Cl [Example 217, 4′-(2-tert-butylphenoxy)-3′-(3-(2-chlorophenyl)ureido)-3-fluorobiphenyl-4-carboxylic acid]
- IC50: 1250 nM

SMILES: Cc1ccc(NC(=O)Nc2cc(-c3ccc(C(=O)O)c(F)c3)ccc2Oc2ccccc2C(C)(C)C)cc1 [Example 218, 4′-(2-tert-butylphenoxy)-3-fluoro-3′-(3-p-tolylureido) biphenyl-4-carboxylic acid]
- IC50: 650 nM

SMILES: CCNC(=O)Nc1cc(-c2cccc(C(=O)O)c2)ccc1Oc1ccccc1C(C)(C)C [Example 220, 4′-(2-tert-butylphenoxy)-3′-(3-ethylureido) biphenyl-3-carboxylic acid]
- IC50: 930 nM

SMILES: CC(C)(C)c1ccccc1Oc1ccc(-c2cc(F)cc(C(=O)O)c2)cc1NC(=O)Nc1ccc(OC(F)(F)F)cc1 [Example 222, 4′-(2-tert-butylphenoxy)-5-fluoro-3′-(3-(4-(trifluoromethoxy)phenyl)ureido) biphenyl-3-carboxylic acid]
- IC50: 1630 nM

SMILES: CC(C)(C)c1ccccc1Oc1ccc(-c2cccc(C(=O)O)c2)cc1NC(=O)Nc1ccccc1Cl [Example 228, 4′-(2-tert-butylphenoxy)-3′-(3-(2-chlorophenyl)ureido)biphenyl-3-carboxylic acid]
- IC50: 420 nM

SMILES: CC(C)(C)c1ccccc1Oc1ccc(-c2cccc(C(=O)O)c2)cc1NC(=O)Nc1cccc(Cl)c1 [Example 231, 4′-(2-tert-butylphenoxy)-3′-(3-(3-chlorophenyl)ureido)biphenyl-3-carboxylic acid]
- IC50: 720 nM

SMILES: CC(C)(C)c1ccccc1Oc1ccc(-c2cccc(C(=O)O)c2)cc1NC(=O)Nc1ccccc1 [Example 234, 4′-(2-tert-butylphenoxy)-3′-(3-phenylureido) biphenyl-3-carboxylic acid]
- IC50: 1850 nM

SMILES: Cc1cccc(NC(=O)Nc2cc(-c3cc(Cl)cc(C(=O)O)c3)ccc2Oc2ccccc2C(C)(C)C)c1 [Example 239, 4′-(2-tert-butylphenoxy)-5-chloro-3′-(3-m-tolylureido) biphenyl-3-carboxylic acid]
- IC50: 1020 nM

SMILES: CC(C)(C)c1ccccc1Oc1ccc(-c2cc(Cl)cc(C(=O)O)c2)cc1NC(=O)Nc1ccc(C#N)cc1 [Example 240, 4′-(2-tert-butylphenoxy)-5-chloro-3′-(3-(4-cyanophenyl)ureido)biphenyl-3-carboxylic acid]
- IC50: 540 nM

SMILES: CC(C)(C)c1ccccc1Oc1ccc(-c2cc(Cl)cc(C(=O)O)c2)cc1NC(=O)Nc1ccc(C(F)(F)F)cc1 [Example 241, 4′-(2-tert-butylphenoxy)-5-chloro-3′-(3-(4-(trifluoromethyl)phenyl)ureido) biphenyl-3-carboxylic acid]
- IC50: 1040 nM

SMILES: Cc1ccccc1NC(=O)Nc1cc(-c2cccc(C(=O)O)c2)ccc1Oc1cccc(Cl)c1 [Example 244, 4′-(3-chlorophenoxy)-3′-(3-o-tolylureido) biphenyl-3-carboxylic acid]
- IC50: 840 nM

SMILES: Cc1ccc(NC(=O)Nc2cc(-c3cccc(C(=O)O)c3)ccc2Oc2ccc(Cl)cc2)cc1 [Example 248, 4′-(4-chlorophenoxy)-3′-(3-p-tolylureido) biphenyl-3-carboxylic acid]
- IC50: 1490 nM

SMILES: Cc1cccc(NC(=O)Nc2cc(-c3cccc(C(=O)O)c3)ccc2Oc2ccc(Cl)cc2)c1 [Example 249, 4′-(4-chlorophenoxy)-3′-(3-m-tolylureido) biphenyl-3-carboxylic acid]
- IC50: 2550 nM

SMILES: O=C(Nc1cc(-c2cc(Cl)cc(C(=O)O)c2)ccc1Oc1ccccc1)Nc1ccccc1C(F)(F)F [Example 250, 5-chloro-4′-phenoxy-3′-(3-(2-(trifluoromethyl)phenyl)ureido) biphenyl-3-carboxylic acid]
- IC50: 1060 nM

SMILES: Cc1ccc(NC(=O)Nc2cc(-c3cc(F)cc(C(=O)O)c3)ccc2Oc2ccccc2C(C)(C)C)cc1 [Example 252, 4′-(2-tert-butylphenoxy)-5-fluoro-3′-(3-p-tolylureido) biphenyl-3-carboxylic acid]
- IC50: 660 nM

SMILES: CC(C)(C)c1ccccc1Oc1ccc(-c2cc(F)cc(C(=O)O)c2)cc1NC(=O)Nc1ccccc1Cl [Example 253, 4′-(2-tert-butylphenoxy)-3′-(3-(2-chlorophenyl)ureido)-5-fluorobiphenyl-3-carboxylic acid]
- IC50: 1100 nM

SMILES: Cc1ccc(NC(=O)Nc2cc(-c3ccc(C(=O)O)cc3)ccc2Oc2ccccc2C(C)(C)C)cc1 [Example 256, 4′-(2-tert-butylphenoxy)-3′-(3-p-tolylureido) biphenyl-4-carboxylic acid]
- IC50: 310 nM

SMILES: COc1cc(-c2ccc(Oc3ccccc3C(C)(C)C)c(NC(=O)Nc3ccc(C)cc3)c2)ccc1C(=O)O [Example 258, 4′-(2-tert-butylphenoxy)-3-methoxy-3′-(3-p-tolylureido) biphenyl-4-carboxylic acid]
- IC50: 2250 nM

SMILES: O=C(Nc1ccccc1Cl)Nc1cc(-c2cccc(C(=O)O)c2)ccc1Oc1ccccc1C(F)(F)F [Example 259, 3′-(3-(2-chlorophenyl)ureido)-4'-(2-(trifluoromethyl)phenoxy) biphenyl-3-carboxylic acid]
- IC50: 2210 nM

SMILES: O=C(Nc1ccc(OC(F)(F)F)cc1)Nc1cc(-c2cc(Cl)cc(C(=O)O)c2)ccc1Oc1ccccc1Cl [Example 260, 5-chloro-4′-(2-chlorophenoxy)-3′-(3-(4-(trifluoromethoxy)phenyl)ureido)biphenyl-3-carboxylic acid]
- IC50: 5590 nM

SMILES: CC(C)(C)c1ccccc1Oc1ccc(-c2cc(Cl)cc(C(=O)O)c2)cc1NC(=O)Nc1ccc(OC(F)(F)F)cc1 [Example 262, 4′-(2-tert-butylphenoxy)-5-chloro-3′-(3-(4-(trifluoromethoxy)phenyl)ureido) biphenyl-3-carboxylic acid]
- IC50: 4560 nM
